In US5391800A, “Method for inhibition of cell motility by sphingosine-1-phosphate, its derivatives and mimetics and method of synthesizing sphingosine-1-phosphate and its derivatives” (The Biomembrane Institute, priority 1993, dated 1995):

Experiments:
mouse 3T3 cell = conditions: literature; cited from earlier work
B16/F10 cells = assay: Chemotactic motility of B16/F10 cells through MATRI-GEL-coated transwell filter; type: cell-based, mouse
Description: (§1) The assays for determining chemotactic cell motility and chemoinvasion can be performed using transwell plates with a polycarbonate membrane filter (pore size 8 μm) (Costar Scientific, Cambridge, Mass.). Aliguots, e.g., 50 μl, of an aqueous solution of MATRI-GEL (Collaborative Research, Bedford, Mass.) containing SPN-1-P or other inhibitor (e.g., 20 μg/ml for chemotactic motility assay or 200 μg/ml for chemoinvasion assay), is added to each well and dried overnight. The filter is then fitted onto the lower chamber plate. The lower chamber can contain conditioned medium (CM) (i.e., medium used for splenic stromal cell culture, and containing motility factor secreted by these cells), e.g., 0.6 ml, with or without SPN-1-P or other inhibitor. To the upper chamber is added, e.g., about 100 μl, of cell suspension (5×10^4 cells/ml for invasion assay, 5×10^5 cells/ml for motility assay), which is then incubated in 5% CO2 at 37° C. for 70-72 hours (invasion assay) or 20 hours (motility assay). After incubation, cells remaining in the upper chamber are wiped off with a cotton swab, and cells which had migrated to the lower chamber side of the filter are fixed in methanol for 30 seconds and stained with 0.05% toluidine blue. The filter is removed, the stain is solubilized in 10% acetic acid (e.g., 0.1 ml for invasion assay, 0.5 ml for motility assay), and color intensity (optical density) is quantitated by ELISA reading at 630 nm. Using SPN-1-P, a linear relationship was observed between cell number and toluidine blue optical density (FIG. 7).
(§2) Assays were performed using transwell plates with polycarbonate membrane filters (pore size 8 μm) (Costar Scientific, Cambridge, Mass.). 50 μl aliguots of an aqueous solution of MATRI-GEL (Collaborative Research, Bedford, Mass.) containing 20 μg/ml (for chemotactic motility assay) or 200 μg/ml (for chemoinvasion assay) were added to each well and dried overnight. The filter was fitted onto the lower chamber plate. The lower chamber contained 0.6 ml conditioned medium (CM) (i.e., medium used for splenic stromal cell culture, and containing motility factor secreted by these cells) with or without the suspected inhibitor. To the upper chamber was added 100 μl of cell suspension (5×10^4 cells/ml for invasion assay, 5×10^5 cells/ml for motility assay), which was then incubated in 5% CO2 at 37° C. for 70-72 hours (invasion assay) or 20 hours (motility assay). After incubation, cells remaining in the upper chamber were wiped off with a cotton swab, and cells which had migrated to the lower chamber side of the filter were fixed in methanol for 30 seconds and stained with 0.05% toluidine blue. The filter was removed, the stain was solubilized in 10% acetic acid (0.1 ml for invasion assay, 0.5 ml for motility assay), and color intensity (optical density) was quantitated by ELISA reading at 630 nm. A linear relationship was observed between cell number and toluidine blue optical density (FIG. 7.).
(§3) In experiments with different quantities of MATRI-GEL, cell migration through transwell filter was maximal with 1 μg/well was applied, and when CM was used (FIG. 8). Therefore, chemotactic cell motility, as affected by various SPN derivatives, was assayed under these conditions.
(§4) *Mean ± S.E. of percent relative to control (n = 4). Actual O.D. value
(§5) and 0.147 (HT1080). 6 × 10^4 cells were placed on a transwell
(§6) filter coated with 1.0 μg MATRIGEL in the upper chamber, and cultured
(§7) for 18 hours in the presence of CM and SPN1-P in the lower chamber.

[1] = tested on: human fibrosarcoma HT1080 cells; assay: Chemotactic motility of fibrosarcoma HT1080 cells through MATRI-GEL-coated transwell filter; type: cell-based
Description: as §1, §2, §3, §4, §5, §6, §7

Balb/c 3T3 fibroblasts = assay: Chemotactic motility of Balb/c 3T3 fibroblasts through MATRI-GEL-coated transwell filter; type: cell-based; conditions: Mus musculus, 18 hours, relative to control, mean ± S.E., n = 4
Description: as §1, §2, §3, §4, §5, §6, §7

| Compound | Mouse 3T3 cell growth (mouse 3T3 cell) | activity at 0.001 µM (B16/F10 cells; Mus musculus, B16-F10, F10, 0.001 μM, 18 hours, relative to control, mean ± S.E., n = 4) [%] | activity at 0.01 µM (B16/F10 cells; Mus musculus, B16-F10, F10, 0.01 μM, 18 hours, relative to control, mean ± S.E., n = 4) [%] | activity at 0.1 µM (B16/F10 cells; Mus musculus, B16-F10, F10, 0.1 μM, 18 hours, relative to control, mean ± S.E., n = 4) [%] | activity at 1 µM (B16/F10 cells; Mus musculus, B16-F10, F10, 1.0 μM, 18 hours, relative to control, mean ± S.E., n = 4) [%] | Susceptibility of B16/F10 cells (chemotactic motility) (B16/F10 cells; Table V, in words) | activity at 0.001 µM ([1]; Homo sapiens, HT-1080, HT1080, 0.001 μM, 18 hours, relative to control, mean ± S.E., n = 4) [%] | activity at 0.01 µM ([1]; Homo sapiens, HT-1080, HT1080, 0.01 μM, 18 hours, relative to control, mean ± S.E., n = 4) [%] | activity at 0.1 µM ([1]; Homo sapiens, HT-1080, HT1080, 0.1 μM, 18 hours, relative to control, mean ± S.E., n = 4) [%] | activity at 1 µM ([1]; Homo sapiens, HT-1080, HT1080, 1.0 μM, 18 hours, relative to control, mean ± S.E., n = 4) [%] | activity at 5 µM ([1]; Homo sapiens, HT-1080, HT1080, 5.0 μM, 18 hours, relative to control, mean ± S.E., n = 4) [%] | Susceptibility of human fibrosarcoma HT1080 cells (chemotactic motility) ([1]; Table V, in words) | activity at 0.001 µM (Balb/c 3T3 fibroblasts; BALB/c3T3, 0.001 μM) [%] | activity at 0.01 µM (Balb/c 3T3 fibroblasts; BALB/c3T3, 0.01 μM) [%] | activity at 0.1 µM (Balb/c 3T3 fibroblasts; BALB/c3T3, 0.1 μM) [%] | activity at 1 µM (Balb/c 3T3 fibroblasts; BALB/c3T3, 1.0 μM) [%] | activity at 5 µM (Balb/c 3T3 fibroblasts; BALB/c3T3, 5.0 μM) [%] |
| --- | --- | --- | --- | --- | --- | --- | --- | --- | --- | --- | --- | --- | --- | --- | --- | --- | --- |
| CCCCCCCCCCCCC/C=C/[C@@H](O)[C@@H](N)CO [SPN, sphingosine] | stimulation of mouse 3T3 cell growth |  |  |  |  |  |  |  |  |  |  |  |  |  |  |  |  |
| CCCCCCCCCCCCC/C=C/[C@@H](O)[C@@H](N)COP(=O)(O)O [SPN-1-P, sphingosine-1-phosphate] |  | 96 ± 21 | 10 ± 4 | 4 ± 2 | 4 ± 1 | high | 100 ± 21 | 100 ± 30 | 115 ± 35 | 105 ± 14 | 64 ± 4 | low | 119 ± 9 | 125 ± 5 | 101 ± 10 | 40 ± 1 | 11 ± 1 |
